Legend:
Assay type in all cases: in vivo
[1] = tested on: Solanum nigrum (SOLNI); assay: Pre-emergence biological efficacy, glasshouse pot test; conditions: 312 h
How it was run: (§1)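 Test compound, formulated in acetone/water (50:50) containing 0.5% Tween 20 and diluted into an aqueous spray, was applied at 1000 or 250 g/ha to pots sown one day earlier. Injury was rated after 13 days, 100 meaning total damage.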

[2] = tested on: Ipomea hederaceae (IPOHE); assay: as above; conditions: Ipomoea hederacea, 312 h
How it was run: as §1

[3] = tested on: Setaria faberi (SETFA); assay: as above; conditions: 312 h
How it was run: as §1

[4] = tested on: Echinochloa crus-galli (ECHCG); assay: as above; conditions: 312 h
How it was run: as §1

[5] = tested on: Amaranthus retoflexus (AMARE); assay: as above; conditions: Amaranthus retroflexus, 312 h
How it was run: as §1

[6] = tested on: Alopecurus myosuroides (ALOMY); assay: as above; conditions: 312 h
How it was run: as §1

[7] = tested on: Solanum nigrum (SOLNI); assay: Post-emergence biological efficacy, glasshouse pot test; conditions: 312 h
How it was run: (§2)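 Plants were sown in standard soil and grown 8 days in a glasshouse (24/16° C. day/night, 14 hours light, 65% humidity), then sprayed post-emergence at 1000 or 250 g/ha from acetone/water (50:50) with 0.5% Tween 20. Damage was scored visually after 13 days (0 = none, 100 = total).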

[8] = tested on: Ipomea hederaceae (IPOHE); assay: as above; conditions: Ipomoea hederacea, 312 h
How it was run: as §2

[9] = tested on: Setaria faberi (SETFA); assay: as above; conditions: 312 h
How it was run: as §2

[10] = tested on: Echinochloa crus-galli (ECHCG); assay: as above; conditions: 312 h
How it was run: as §2

[11] = tested on: Amaranthus retoflexus (AMARE); assay: as above; conditions: Amaranthus retroflexus, 312 h
How it was run: as §2

[12] = tested on: Alopecurus myosuroides (ALOMY); assay: as above; conditions: 312 h
How it was run: as §2

[13] = pre-emergence, rate 1,000 g/ha, evaluated after 13 days (100=total damage to plant; 0=no damage), read-out: Percentage damage caused to weed species, SOLNI
[14] = pre-emergence, rate 1,000 g/ha, evaluated after 13 days (100=total damage to plant; 0=no damage), read-out: Percentage damage caused to weed species, IPOHE
[15] = pre-emergence, rate 1,000 g/ha, evaluated after 13 days (100=total damage to plant; 0=no damage), read-out: Percentage damage caused to weed species, SETFA
[16] = pre-emergence, rate 1,000 g/ha, evaluated after 13 days (100=total damage to plant; 0=no damage), read-out: Percentage damage caused to weed species, ECHCG
[17] = pre-emergence, rate 1,000 g/ha, evaluated after 13 days (100=total damage to plant; 0=no damage), read-out: Percentage damage caused to weed species, AMARE
[18] = pre-emergence, rate 1,000 g/ha, evaluated after 13 days (100=total damage to plant; 0=no damage), read-out: Percentage damage caused to weed species, ALOMY
[19] = Rate 1,000 g/ha, post-emergence spray, evaluated after 13 days (100=total damage to plant; 0=no damage to plant), read-out: Percentage damage caused to weed species, post-emergence, SOLNI
[20] = Rate 1,000 g/ha, post-emergence spray, evaluated after 13 days (100=total damage to plant; 0=no damage to plant), read-out: Percentage damage caused to weed species, post-emergence, IPOHE
[21] = Rate 1,000 g/ha, post-emergence spray, evaluated after 13 days (100=total damage to plant; 0=no damage to plant), read-out: Percentage damage caused to weed species, post-emergence, SETFA
[22] = Rate 1,000 g/ha, post-emergence spray, evaluated after 13 days (100=total damage to plant; 0=no damage to plant), read-out: Percentage damage caused to weed species, post-emergence, ECHCG
[23] = Rate 1,000 g/ha, post-emergence spray, evaluated after 13 days (100=total damage to plant; 0=no damage to plant), read-out: Percentage damage caused to weed species, post-emergence, AMARE
[24] = Rate 1,000 g/ha, post-emergence spray, evaluated after 13 days (100=total damage to plant; 0=no damage to plant), read-out: Percentage damage caused to weed species, post-emergence, ALOMY
[25] = pre-emergence, 1,000 g/ha, evaluated after 13 days (100=total damage; 0=no damage), read-out: Percentage damage SOLNI
[26] = pre-emergence, 1,000 g/ha, evaluated after 13 days (100=total damage; 0=no damage), read-out: Percentage damage IPOHE
[27] = pre-emergence, 1,000 g/ha, evaluated after 13 days (100=total damage; 0=no damage), read-out: Percentage damage SETFA
[28] = pre-emergence, 1,000 g/ha, evaluated after 13 days (100=total damage; 0=no damage), read-out: Percentage damage ECHCG
[29] = pre-emergence, 1,000 g/ha, evaluated after 13 days (100=total damage; 0=no damage), read-out: Percentage damage AMARE
[30] = pre-emergence, 1,000 g/ha, evaluated after 13 days (100=total damage; 0=no damage), read-out: Percentage damage ALOMY
[31] = post-emergence, 1,000 g/ha, evaluated after 13 days (100=total damage; 0=no damage), read-out: Percentage damage caused to weed species, SOLNI
[32] = post-emergence, 1,000 g/ha, evaluated after 13 days (100=total damage; 0=no damage), read-out: Percentage damage caused to weed species, IPOHE
[33] = post-emergence, 1,000 g/ha, evaluated after 13 days (100=total damage; 0=no damage), read-out: Percentage damage caused to weed species, SETFA
[34] = post-emergence, 1,000 g/ha, evaluated after 13 days (100=total damage; 0=no damage), read-out: Percentage damage caused to weed species, ECHCG
[35] = post-emergence, 1,000 g/ha, evaluated after 13 days (100=total damage; 0=no damage), read-out: Percentage damage caused to weed species, AMARE
[36] = post-emergence, 1,000 g/ha, evaluated after 13 days (100=total damage; 0=no damage), read-out: Percentage damage caused to weed species, ALOMY

Compound | pest or weed control at 1000 g/ha [1, 13] | pest or weed control at 1000 g/ha [2, 14] | pest or weed control at 1000 g/ha [3, 15] | pest or weed control at 1000 g/ha [4, 16] | pest or weed control at 1000 g/ha [5, 17] | pest or weed control at 1000 g/ha [6, 18] | pest or weed control at 1000 g/ha [7, 19] | pest or weed control at 1000 g/ha [8, 20] | pest or weed control at 1000 g/ha [9, 21] | pest or weed control at 1000 g/ha [10, 22] | pest or weed control at 1000 g/ha [11, 23] | pest or weed control at 1000 g/ha [12, 24] | pest or weed control at 1000 g/ha [1, 25] | pest or weed control at 1000 g/ha [2, 26] | pest or weed control at 1000 g/ha [3, 27] | pest or weed control at 1000 g/ha [4, 28] | pest or weed control at 1000 g/ha [5, 29] | pest or weed control at 1000 g/ha [6, 30] | pest or weed control at 1000 g/ha [7, 31] | pest or weed control at 1000 g/ha [8, 32] | other results
COC(=O)c1nc(C2CC2)nc(N(C)Cc2cccc([N+](=O)[O-])c2)c1Cl [Compound 5-91, 5-Chloro-2-cyclopropyl-6-methoxycarbonyl-4-[N-methyl-N-(3-nitrophenylmethyl)-amino]pyrimidine] | 60% | 30% | 10% | 0% | 70% | 10% | 80% | 80% | 40% | 30% | 100% | 20% | – | – | – | – | – | – | – | – | –
COC(=O)c1nc(C2CC2)nc(N(C)[C@@H](Cc2ccccc2)C(=O)OC)c1Cl [5-283 (S), 5-Chloro-2-cyclopropyl-6-methoxycarbonyl-4-{N-[(1S)-1-methoxycarbonyl-2-phenyl-ethyl]-N-methyl-amino}-pyrimidine] | 40% | 30% | 0% | 0% | 80% | 0% | 70% | 50% | 40% | 10% | 100% | 10% | – | – | – | – | – | – | – | – | –
COC(=O)c1nc(C2CC2)nc(NCCC2OCCO2)c1Cl [Compound 4-216, 5-Chloro-2-cyclopropyl-4-[2-(1,3-dioxolan-2-yl)ethylamino]-6-methoxycarbonyl-pyrimidine] | – | – | – | – | – | – | – | – | – | – | – | – | 90% | 100% | 40% | 40% | 100% | 30% | 70% | 80% | pest or weed control at 1000 g/ha [9, 33]: 60%; pest or weed control at 1000 g/ha [10, 34]: 20%; pest or weed control at 1000 g/ha [11, 35]: 100%; pest or weed control at 1000 g/ha [12, 36]: 20%
COC(=O)c1nc(C2CC2)nc(NCc2cccc(Cl)c2)c1Cl [Compound 4-62] | – | – | – | – | – | – | – | – | – | – | – | – | 90% | 60% | 10% | 20% | 100% | 10% | 100% | 100% | pest or weed control at 1000 g/ha [9, 33]: 90%; pest or weed control at 1000 g/ha [10, 34]: 70%; pest or weed control at 1000 g/ha [11, 35]: 100%; pest or weed control at 1000 g/ha [12, 36]: 30%
COC(=O)c1nc(C2CC2)nc(N(Cc2ccccc2)Cc2ccccc2)c1Cl [Compound 155-60, 5-Chloro-2-cyclopropyl-4-dibenzylamino-6-methoxycarbonyl-pyrimidine] | 0% | 40% | 0% | 0% | 30% | 0% | 80% | 80% | 40% | 10% | 70% | 10% | – | – | – | – | – | – | – | – | –
